This note sets out measurements from PMC11944851, “Computationally Guided Design, Synthesis, and Evaluation of Novel Non-Hydroxamic Histone Deacetylase Inhibitors, Based on N-Trifluoroacetamide as a Zinc-Binding Group, Against Breast Cancer” (Pharmaceuticals, 2025).

Read-outs that look alike come from different tables or passages of the source.

In series [1] the test system is HDACs in nuclear extract of HeLa cells. Description: HDAC inhibitory activity, fluorescence assay in HeLa nuclear extract. The series is classed as biochemical.
Description: In this in vitro assay, residual HDAC activity was measured in a nuclear extract of HeLa cells after incubation with the different compounds at 5 µM, followed by single endpoint fluorescence measurement.
To obtain nuclear extracts, HeLa cell cultures were used. The HeLa cell line was cultured in high-glucose DMEM medium with phenol red, supplemented with 8% fetal bovine serum (Gibco, Waltham, MA, USA), 1% Penicillin/Streptomycin (10,000 U/mL, Gibco, Waltham, MA, USA), and 1% non-essential amino acids (Gibco, Waltham, MA, USA). Cells were maintained in an incubator at 37 °C and 5% CO2 atmosphere. To obtain the required number of cells for nuclear extraction, two 150 cm^2 flasks were cultured, resulting in approximately 2 × 10^7 cells. The cells were trypsinized with a 10% V/V trypsin solution (Gibco, Waltham, MA, USA) and subsequently centrifuged at 3000 rpm for 10 min for counting with trypan blue using an automatic counter (Mart-Counter 3000, Corning, NY, USA). Solutions for nuclear material extraction were prepared following the protocol of the commercial kit Abcam Ab156064 (ABCAM, Milpitas, CA, USA). For the lysis buffer (solution A), 10 mL was prepared with Tris-HCl (10 mM) pH 7.5, NaCl (10 mM), MgCl2 (15 mM), sucrose (250 mM), EGTA (0.1 mM), and NP-40 (0.5%). For the sucrose buffer (solution B), 15 mL was prepared with Tris-HCl (10 mM) pH 7.5, NaCl (10 mM), MgCl2 (3 mM), and sucrose (30%). For the extraction buffer (solution C), 10 mL was prepared with NaCl (420 mM), EGTA (0.1 mM), HEPES-KOH (50 mM, pH 7.5), EDTA Na₂ (0.5 mM), and glycerol (10%). For every 1 × 10^7 of cells, 1 mL of solution A (lysis buffer) was added and vortexed for 10 s, followed by a 15 min rest in an ice bath. Then, 4 mL of solution B (sucrose buffer) was added, and the mixture was centrifuged at 1300× g for 10 min at 4 °C. The supernatant was discarded, and the nuclear pellet was washed with a solution of NaCl (10 mM) and Tris-HCl (10 mM) at pH 7.5. The nuclear pellet was then resuspended in 100 µL of solution C (extraction buffer), sonicated for 30 s, and placed in an ice bath for 30 min. The nuclear solution was centrifuged at 20,000× g for 10 min and the supernatant, containing the nuclear extract, was collected. The nuclear extracts were stored at −80 °C. The Lowry colorimetric assay was used to standardize the protein concentration of the obtained nuclear extracts. A sample of the nuclear extract and a sample of bovine serum albumin as a control were each added to 1 mL of Lowry reagent (sodium tartrate 0.1 M, sodium bicarbonate 0.1 M, CuSO4 0.01 M, and 50% Folin reagent).
Prior to the experiment, a calibration curve was performed to ensure linearity.
Reactions were prepared in a 96-well plate following the specified volumes and conditions. Initially, the appropriate volume of deionized water (ddH2O) and 10 μL of buffer were added to each well. Subsequently, 5 μL of either acetylated or deacetylated substrate was added, depending on the experimental group.
Inhibition controls included Trichostatin A (TSA) at 1 mM, with 2 μL added to achieve a final concentration of 20 μM. The reaction was initiated by adding 4 μL of HeLa nuclear extract to each well, except for the developer control wells. The plate was incubated at 37 °C for 30 min, followed by the addition of 10 μL of developer solution. After a second incubation at 37 °C for another 30 min, fluorescence was measured using a plate reader with an excitation/emission of 350–380 nm/440–460 nm.
Remaining HDAC activity was estimated using the calibration curve, where the fluorescence units (AFU) obtained for each condition were converted into deacetylated substrate concentration (μM).
The nature of series [2]: MTT cell viability, non-tumorigenic MCF-10A. Type of series: cell-based. The settings on record: human, MCF-10A non-cancerous mammary epithelial cells, MTT, non-tumorigenic breast cells, read-out: Cytotoxic Activity IC50 MCF-10A. The protocol: (§1) For the culture of normal breast epithelial cells MCF-10A, DMEM-F12 medium without phenol red was used, supplemented with 5% fetal bovine serum (Gibco, Waltham, MA, USA), 1% Penicillin/Streptomycin (10,000 U/mL, Gibco, Waltham, MA, USA), 1% non-essential amino acids (Gibco, Waltham, MA, USA), 0.33% hydrocortisone, 0.2% insulin (100 U/mL), and 0.002% EGF (1 µg/µL). For the assays with MCF-10A cells, 2.5 × 10^3 cells/well were seeded in 100 µL of medium.
(§2) The 3-(4,5-dimethylthiazol-2-yl)-2,5-diphenyl tetrazolium bromide assay was used to evaluate the effect of the designed compounds on cell viability. These compounds were initially dissolved in DMSO (dimethyl sulfoxide) as stock solutions at 150 mM. Cells were seeded in 96-well plates (NEST Biotechnology Co., Wuxi, China) at different densities, depending on the cell line used and the incubation time with the treatments, and left in 100 µL of the corresponding culture medium for 24 h to allow for adhesion. Then, the cells were treated with different concentrations of each compound, maintaining a maximum of 0.46% DMSO. After 48 or 72 h of treatment, 20 µL of MTT (5 mg/mL) in phosphate-buffered saline (PBS; Sigma) solution was added to each well and incubated again for 3 h. Subsequently, the blue formazan compound derived from the MTT was dissolved in 100 µL of DMSO. The optical density of the wells was measured at 550 nm using an ELISA reader (MultiSkan, Thermo Scientific, Waltham, MA, USA). Finally, cell viability was expressed as a percentage relative to the negative control (untreated and 0.46% DMSO).
(§3) Cytotoxicity data were analyzed using one-way ANOVA to evaluate differences between the treated groups and the negative control (DMSO). Multiple comparisons with the negative control were performed using Dunnett’s post hoc test. Statistical analysis was performed using GraphPad Prism 10 software (free trial, https://www.graphpad.com/demos/, accessed on 26 June 2024). For the calculation of the IC50s of the compounds, cytotoxicity responses were fitted to a variable slope sigmoidal equation (log(inhibitor) vs. normalized response). A p < 0.05 value was considered statistically significant.

In a further series the test system is MDA-MB-231 cells. Description: MTT cell viability, MDA-MB-231. The series is classed as cell-based. As to conditions: for IC50: MTT, read-out: Cytotoxic Activity IC50 MDA-MB-231; for Cytotoxic activity, initial viability experiment: MDA-MB-231, 72 h of treatment; for Selectivity Index MCF-10A/ MDA-MB-231: ratio of IC50. The procedure:
(§4) The BC cell lines MCF-7 and MDA-MB-231 were cultured in high-glucose DMEM medium with phenol red, supplemented with 7% and 10% fetal bovine serum (Gibco, Waltham, MA, USA), respectively, 1% Penicillin/Streptomycin (10,000 U/mL, Gibco, Waltham, MA, USA), and 1% non-essential amino acids (Gibco, Waltham, MA, USA). Cell cultures were maintained in a temperature-controlled incubator at 37 °C and 5% CO2 atmosphere. For the 72 h assays with MDA-MB-231, 1.8 x 10³ cells/well were seeded in 100 µL of medium.
as §2, §3

In a further series the test system is MCF-7 cells. Description: MTT cell viability, MCF-7. Type of series: cell-based. As to conditions: for IC50: MTT, read-out: Cytotoxic Activity IC50 MCF-7; for Selectivity Index MCF-10A/ MCF-7: ratio of IC50. The protocol: as §4, §2, §3
Another series relates to MCF-10A cells. Briefly: MTT cell viability, non-tumorigenic MCF-10A. The series is classed as cell-based. The settings on record: 72 h. The protocol: as §1, §2, §3
[3] abbreviates: 5 µM, single endpoint fluorescence.
The mark [4] stands for this setting: Homo sapiens, MDA-MB-231, 72 h, 72 h.

With `CC(=O)NCCCCCC(=O)Nc1ccccc1O` [5a, 6-Acetamido-N-(2-hydroxyphenyl) Hexanamide], the “Effect on HDAC activity” value in series [1] (setting [3]) is listed as “slight decrease in HDACs activity”.

Take `CC(=O)NCCCCCC(=O)Nc1ccc(O)cc1` [5b, 6-Acetamido-N-(4-hydroxyphenyl) Hexanamide]: the IC50 at 72 h in series [2] is 169 ± 20.6 µM. Moreover, the IC50 in the series on MDA-MB-231 cells (setting [4]) worked out at 121 ± 26.7 µM; with MCF-7 cells (Homo sapiens, MCF7, 72 h, 72 h), 230 µM; in the series on MCF-7 cells (72 h), 228 ± 52.9 µM. Further, the “Cytotoxic activity, initial viability experiment” value (from here on “Cytotoxic activity”) in the series on MDA-MB-231 cells is reported as “significant cytotoxic activity”. For the same compound, in the series on MDA-MB-231 cells, the “Selectivity Index MCF-10A/ MDA-MB-231” value is 1.39. In the series on MCF-7 cells, the “Selectivity Index MCF-10A/ MCF-7” value is given as 0.74.

For the compound `O=C(CCCCCNC(=O)C(F)(F)F)Nc1ccccc1O` [6a, N-(2-hydroxyphenyl)-6-(2,2,2-trifluoroacetamido) Hexanamide], the “fold less toxic than SAHA in MCF-10A cells” value in the series with MCF-10A cells is “≈ 200 fold”. Besides, the IC50 in the series on MDA-MB-231 cells (setting [4]) was determined as 226 µM; with MDA-MB-231 cells (72 h), 225 ± 17.6 µM; with MCF-7 cells (Homo sapiens, MCF7, 72 h, 72 h), 254 ± 34.4 µM. Also, the “Cytotoxic activity” value with MDA-MB-231 cells was “significant cytotoxic activity”. The “Selectivity Index MCF-10A/ MDA-MB-231” value with MDA-MB-231 cells is above 2.66. The “Selectivity Index MCF-10A/ MCF-7” value with MCF-7 cells is recorded as above 2.36. The “Effect on HDAC activity” value in series [1] (setting [3]) is “slight decrease in HDACs activity”.

As for `O=C(CCCCCNC(=O)C(F)(F)F)Nc1ccc(O)cc1` [6b, N-(4-hydroxyphenyl)-6-(2,2,2-trifluoroacetamido) Hexanamide], the “fold less toxic than SAHA in MCF-10A cells” value in the series with MCF-10A cells is on record as “more than 50 fold”. The half-inhibitory concentration (IC50) at 72 h in series [2] worked out at 155 ± 21.6 µM. Besides, in the series with MDA-MB-231 cells (72 h), the “fold more potent than 5b in triple-negative breast cancer cells” value worked out at 1.5 fold and the concentration for half-maximal inhibition (IC50) turned out to be 76.7 ± 8.52 µM. In addition, in the series on MDA-MB-231 cells (setting [4]), the 50% inhibitory concentration (IC50) was found to be 76.7 µM. In addition, in the series on MDA-MB-231 cells, the “Cytotoxic activity” value is “significant cytotoxic activity” and the “Selectivity Index MCF-10A/ MDA-MB-231” value is reported as 2.01. In addition, the “fold more active than 5b in ER-positive cells” value in the series with MCF-7 cells (72 h) was found to be 5 fold. In the series on MCF-7 cells (Homo sapiens, MCF7, 72 h, 72 h), the concentration for half-maximal inhibition (IC50) was determined as 45.7 ± 6.91 µM. In the series on MCF-7 cells, the “Selectivity Index MCF-10A/ MCF-7” value was found to be 3.38.

For `O=C(CCCCCCC(=O)Nc1ccccc1)NO` [SAHA, suberoylanilide hydroxamic acid, reference compound], the “Effect on HDAC activity” value in series [1] (setting [3]) is “reduced HDAC activity almost completely”.

For `CC(=O)NCCCCCC(=O)O` [compound 2, 6-Acetamidohexanoic Acid], the “Effect on HDAC activity” value in series [1] (setting [3]) is listed as “slight decrease in HDACs activity”.

Turning to `O=C(O)CCCCCNC(=O)C(F)(F)F` [compound 3, 6-(2,2,2-trifluoroacetamido) Hexanoic Acid], the “Effect on HDAC activity” value in series [1] (setting [3]) is “slight decrease in HDACs activity”.

As for “Trichostatin A [TSA, reference compound]”, the “Effect on HDAC activity” value in series [1] (TSA 20 µM) is listed as “reduced HDAC activity almost completely”.
